What all share (assay type): physicochemical
A short description of data set [1]: Log P of the active agent. An excerpt:
Log P: The Log P value of an active agent is defined as the base 10 logarithm of the ratio of (1) the active agent concentration in an octanol phase to (2) the active agent concentration in a water phase when the two phases are in equilibrium with each other, is a widely accepted measure of lipophilicity. The Log P value may be measured experimentally or calculated using methods known in the art. The Log P value may be estimated experimentally by determining the ratio of the drug solubility in octanol to the drug solubility in water. When using a calculated value for the Log P value, the highest value calculated using any generally accepted method for calculating Log P is used.

Data set [2] is described as follows: pKa (base) of the active agent.
Data set [3] in a line: Crystalline and amorphous solubility of the active agent in SIF / gastric buffer.

≈ marks a conversion by molar mass, not a printed value. Where two headings read alike, the source gives them in different places.

The Log P is the decadic logarithm of the partition coefficient of the neutral form, usually between octanol and water. In general, pKa refers to the negative logarithm of the acid dissociation constant. As usually defined, the solubility is the concentration that dissolves in the medium under given conditions. Take `C#Cc1cccc(Nc2ncnc3cc(OCCOC)c(OCCOC)cc23)c1` [Erlotinib]: the “Log P” value in data set [1] was determined as 2.8. The pKa in data set [2] was found to be 5.3. Moreover, the solubility is ~380 µg/mL (≈ 966 µM) in data set [3] (0.5% SIF (simulated intestinal fluid), fassgf or other biorelevant, amorphous, 0.5% SIF, read-out: amorphous solubility in 0.5% SIF) and 182 µg/mL (≈ 463 µM) in data set [3] (gastric buffer (GB), simulated gastric fluid, thermodynamic from solid, crystalline, gastric buffer, read-out: crystalline solubility in gastric buffer (GB)).
Turning to Posaconazole, in data set [1], the lipophilicity (Log P) worked out at 4.5. Besides, in data set [2], the “pKa (base)” value came to 4.5.
